{"source": "patent US9596854B2", "about": "“Fungicidal penflufen mixtures” (priority 2010, dated 2017)", "experiment_in_all_cases": "Synergism test: MIC of radial hyphae growth on malt extract/peptone agar, SI by Kull", "type_in_all_cases": "cell-based", "key": {"Poria placenta": {"system": "Poria placenta", "conditions": "nutrient agar, 26° C"}, "Coriolus versicolor": {"system": "Coriolus versicolor", "conditions": "for MIC: Trametes versicolor"}, "Gloeophyllum trabeum": {"system": "Gloeophyllum trabeum"}, "Stereum sanguinolentum": {"system": "Stereum sanguinolentum", "conditions": "nutrient agar, 26° C"}, "Coniophora puteana": {"system": "Coniophora puteana", "conditions": "Example 8, penflufen/boron oxide, nutrient agar, 26° C"}, "[1]": {"conditions": "Example 4, penflufen/DDAC, read-out: MIC Poria placenta"}, "[2]": {"conditions": "Example 1, penflufen/IPBC, nutrient agar, 26° C, complete suppression of radial hyphae growth, read-out: MIC against Gloeophyllum trabeum"}, "[3]": {"conditions": "Example 3, penflufen/Lonzabac, nutrient agar, 26° C, read-out: MIC against Coriolus versicolor"}, "[4]": {"conditions": "Example 9, penflufen/boric acid, nutrient agar, 26° C, read-out: MIC Gloeophyllum trabeum"}, "[5]": {"conditions": "Example 5, penflufen/DDA propionate"}}, "note": "Read-outs that look alike come from different tables or passages of the source."}
{"molecule": "CCCCCCCCCC[N+](C)(C)CCCCCCCCCC.[Cl-]", "note": "[DDAC, Didecyldimethylammonium Chloride]", "values": [{"measurement": "MIC", "setting": "Poria placenta; [1]", "result": 100, "unit": "µg/mL"}, {"measurement": "MIC", "setting": "Coriolus versicolor; read-out: MIC Coriolus versicolor", "result": 60, "unit": "µg/mL"}]}
{"molecule": "CCCCNC(=O)OCC#CI", "note": "[IPBC, 3-Iodo-2-propynyl N-butylcarbamate]", "values": [{"measurement": "MIC", "setting": "Gloeophyllum trabeum; [2]", "result": 10, "unit": "µg/mL"}]}
{"molecule": "CCCCCCCCCCCCN(CCCN)CCCN", "note": "[Lonzabac, N-(3-aminopropyl)-N-dodecyl-1,3-propanediamine]", "values": [{"measurement": "MIC", "setting": "Coriolus versicolor; [3]", "result": 30, "unit": "µg/mL"}]}
{"molecule": "OB(O)O", "note": "[boric acid]", "values": [{"measurement": "MIC", "setting": "Gloeophyllum trabeum; [4]", "result": 100, "unit": "µg/mL"}, {"measurement": "MIC", "setting": "Coriolus versicolor; Example 9, penflufen/boric acid, nutrient agar, 26° C, read-out: MIC Coriolus versicolor", "result": 100, "unit": "µg/mL"}]}
{"molecule": "Oc1ccccc1-c1ccccc1", "note": "[o-phenylphenol]", "values": [{"measurement": "MIC", "setting": "Gloeophyllum trabeum; read-out: MIC against Gloeophyllum trabeum", "result": 60, "unit": "µg/mL"}]}
{"molecule": "Cc1nn(C)c(F)c1C(=O)Nc1ccccc1C(C)CC(C)C", "note": "(stereo not drawn) [penflufen]", "values": [{"measurement": "MIC", "setting": "Gloeophyllum trabeum; [2]", "result": 0.3, "unit": "µg/mL"}, {"measurement": "MIC", "setting": "Gloeophyllum trabeum; [4]", "result": 0.3, "unit": "µg/mL"}, {"measurement": "MIC", "setting": "Gloeophyllum trabeum; Example 11, penflufen/o-phenylphenol, nutrient agar, 26° C, read-out: MIC against Gloeophyllum trabeum", "result": 0.7, "unit": "µg/mL"}, {"measurement": "MIC", "setting": "Poria placenta; Example 2, penflufen/DCOIT, read-out: MIC against Poria placenta", "result": 0.3, "unit": "µg/mL"}, {"measurement": "MIC", "setting": "Poria placenta; [1]", "result": 0.1, "unit": "µg/mL"}, {"measurement": "MIC", "setting": "Poria placenta; Example 5, penflufen/DDA propionate, read-out: MIC Poria placenta", "result": 0.3, "unit": "µg/mL"}, {"measurement": "MIC", "setting": "Poria placenta; Example 6, penflufen/benzalkonium chloride, read-out: MIC against Poria placenta", "result": 0.3, "unit": "µg/mL"}, {"measurement": "MIC", "setting": "Poria placenta; Example 7, penflufen/Carboquat, read-out: MIC Poria placenta", "result": 0.3, "unit": "µg/mL"}, {"measurement": "MIC", "setting": "Poria placenta; Example 10, penflufen/sodium borate, read-out: MIC against Poria placenta", "result": 0.3, "unit": "µg/mL"}, {"measurement": "MIC Coriolus versicolor", "setting": "Coriolus versicolor; Example 9, penflufen/boric acid, nutrient agar, 26° C", "result": 0.1, "unit": "ppm"}, {"measurement": "MIC", "setting": "Coriolus versicolor; [3]", "result": 0.5, "unit": "µg/mL"}, {"measurement": "MIC", "setting": "Coriolus versicolor; Example 4, penflufen/DDAC, nutrient agar, 26° C, read-out: MIC Coriolus versicolor", "result": 0.1, "unit": "µg/mL"}, {"measurement": "MIC Stereum sanguinolentum", "setting": "Stereum sanguinolentum; Example 7, penflufen/Carboquat", "result": 3.0, "unit": "ppm"}, {"measurement": "MIC", "setting": "Stereum sanguinolentum; Stereum sanguinolentum, Example 5, penflufen/DDA propionate", "result": 3, "unit": "µg/mL"}, {"measurement": "MIC", "setting": "Coniophora puteana; Coniophora puteana, read-out: MIC against Coniophora puteana", "result": 0.7, "unit": "µg/mL"}]}
{"molecule": "O.O.O.O.O.O.O.O.O.O.[Na+].[Na+].[O-]B1OB2OB([O-])OB(O1)O2", "note": "[sodium borate]", "values": [{"measurement": "MIC against Poria placenta", "setting": "Poria placenta; Example 10, penflufen/sodium borate", "result": 100.0, "unit": "ppm"}]}
{"molecule": "benzalkonium chloride", "values": [{"measurement": "MIC against Poria placenta", "setting": "Poria placenta; Example 6, penflufen/benzalkonium chloride", "result": 100.0, "unit": "ppm"}]}
{"molecule": "boron oxide", "values": [{"measurement": "MIC against Coniophora puteana", "setting": "Coniophora puteana", "result": 100, "unit": "ppm"}]}
{"molecule": "didecylmethylpoly(oxyethyl)ammonium Propionate [DDA propionate]", "values": [{"measurement": "MIC Poria placenta", "setting": "Poria placenta; [5]", "result": 100.0, "unit": "ppm"}, {"measurement": "MIC Stereum sanguinolentum", "setting": "Stereum sanguinolentum; [5]", "result": 30.0, "unit": "ppm"}]}
